Results published in patent US7189714B2, “N-type calcium channel antagonists for the treatment of pain” (Astrazeneca AB, priority 2000, dated 2007).

biological target: N-type calcium channel (Homo sapiens, UniProt Q00975); assay: N-channel FLIPR assay (inhibition of K+-evoked calcium flux in differentiated IMR32 cells); assay type: cell-based; settings: 80 mM K+ stimulus
Sequence (Q00975 whole entry): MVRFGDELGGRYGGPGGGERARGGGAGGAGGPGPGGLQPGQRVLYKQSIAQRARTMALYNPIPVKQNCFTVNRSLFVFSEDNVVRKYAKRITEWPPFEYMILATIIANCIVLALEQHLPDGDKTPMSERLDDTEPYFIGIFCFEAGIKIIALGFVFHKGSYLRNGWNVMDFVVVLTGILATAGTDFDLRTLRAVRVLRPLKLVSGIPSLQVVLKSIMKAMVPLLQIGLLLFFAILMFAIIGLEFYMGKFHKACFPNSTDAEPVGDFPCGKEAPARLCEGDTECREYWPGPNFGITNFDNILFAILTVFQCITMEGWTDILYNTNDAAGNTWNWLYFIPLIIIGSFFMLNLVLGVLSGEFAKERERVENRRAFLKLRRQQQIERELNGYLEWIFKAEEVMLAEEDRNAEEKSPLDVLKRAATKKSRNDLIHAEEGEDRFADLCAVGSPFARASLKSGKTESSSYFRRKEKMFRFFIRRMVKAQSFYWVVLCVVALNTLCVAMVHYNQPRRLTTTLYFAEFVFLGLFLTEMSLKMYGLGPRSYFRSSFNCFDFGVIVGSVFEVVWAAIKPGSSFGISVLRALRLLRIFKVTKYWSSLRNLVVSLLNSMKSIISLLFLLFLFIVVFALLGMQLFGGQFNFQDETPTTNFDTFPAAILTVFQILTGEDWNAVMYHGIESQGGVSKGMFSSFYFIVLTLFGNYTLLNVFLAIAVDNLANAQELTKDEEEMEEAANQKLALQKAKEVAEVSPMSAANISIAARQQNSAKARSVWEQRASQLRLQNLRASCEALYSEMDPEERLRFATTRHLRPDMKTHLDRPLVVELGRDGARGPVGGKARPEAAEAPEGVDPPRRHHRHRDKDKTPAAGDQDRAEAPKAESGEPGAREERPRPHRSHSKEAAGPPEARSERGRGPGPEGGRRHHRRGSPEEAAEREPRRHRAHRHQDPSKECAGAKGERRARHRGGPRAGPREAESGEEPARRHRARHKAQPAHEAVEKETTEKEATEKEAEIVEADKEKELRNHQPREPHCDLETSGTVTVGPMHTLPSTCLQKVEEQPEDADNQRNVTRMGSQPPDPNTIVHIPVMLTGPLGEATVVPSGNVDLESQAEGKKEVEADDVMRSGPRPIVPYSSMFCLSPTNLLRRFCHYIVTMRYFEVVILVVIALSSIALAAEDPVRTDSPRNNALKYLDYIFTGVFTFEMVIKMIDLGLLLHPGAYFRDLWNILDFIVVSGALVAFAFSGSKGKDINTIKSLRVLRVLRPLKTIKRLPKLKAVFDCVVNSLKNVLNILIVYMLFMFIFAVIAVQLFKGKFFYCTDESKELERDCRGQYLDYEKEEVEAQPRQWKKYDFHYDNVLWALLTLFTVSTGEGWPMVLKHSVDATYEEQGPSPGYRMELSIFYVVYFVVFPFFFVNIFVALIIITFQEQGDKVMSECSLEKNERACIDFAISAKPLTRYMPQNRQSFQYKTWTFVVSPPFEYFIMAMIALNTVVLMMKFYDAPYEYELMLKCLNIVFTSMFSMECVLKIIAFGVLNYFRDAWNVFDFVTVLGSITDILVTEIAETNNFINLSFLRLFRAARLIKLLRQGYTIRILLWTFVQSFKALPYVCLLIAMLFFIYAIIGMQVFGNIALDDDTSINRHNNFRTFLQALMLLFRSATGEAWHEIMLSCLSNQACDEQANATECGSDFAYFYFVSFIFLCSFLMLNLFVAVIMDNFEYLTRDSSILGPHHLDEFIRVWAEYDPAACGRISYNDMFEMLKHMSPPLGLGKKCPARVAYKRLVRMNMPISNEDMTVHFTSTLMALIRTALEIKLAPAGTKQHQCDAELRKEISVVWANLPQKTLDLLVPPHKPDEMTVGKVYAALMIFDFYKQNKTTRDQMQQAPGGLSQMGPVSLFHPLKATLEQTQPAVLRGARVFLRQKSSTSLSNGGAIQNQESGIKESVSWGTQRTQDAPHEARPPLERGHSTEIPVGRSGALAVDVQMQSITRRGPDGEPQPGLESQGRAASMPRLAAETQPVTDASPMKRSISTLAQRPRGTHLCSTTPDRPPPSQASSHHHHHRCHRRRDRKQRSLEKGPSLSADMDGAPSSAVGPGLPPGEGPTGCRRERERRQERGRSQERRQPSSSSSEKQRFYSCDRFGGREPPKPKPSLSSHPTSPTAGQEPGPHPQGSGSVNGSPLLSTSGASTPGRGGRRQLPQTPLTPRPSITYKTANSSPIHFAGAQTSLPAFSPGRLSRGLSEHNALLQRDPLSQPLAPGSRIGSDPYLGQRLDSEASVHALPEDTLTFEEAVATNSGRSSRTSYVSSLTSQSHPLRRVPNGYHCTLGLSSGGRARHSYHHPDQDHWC
Sequence (P54289 25-1103 partner): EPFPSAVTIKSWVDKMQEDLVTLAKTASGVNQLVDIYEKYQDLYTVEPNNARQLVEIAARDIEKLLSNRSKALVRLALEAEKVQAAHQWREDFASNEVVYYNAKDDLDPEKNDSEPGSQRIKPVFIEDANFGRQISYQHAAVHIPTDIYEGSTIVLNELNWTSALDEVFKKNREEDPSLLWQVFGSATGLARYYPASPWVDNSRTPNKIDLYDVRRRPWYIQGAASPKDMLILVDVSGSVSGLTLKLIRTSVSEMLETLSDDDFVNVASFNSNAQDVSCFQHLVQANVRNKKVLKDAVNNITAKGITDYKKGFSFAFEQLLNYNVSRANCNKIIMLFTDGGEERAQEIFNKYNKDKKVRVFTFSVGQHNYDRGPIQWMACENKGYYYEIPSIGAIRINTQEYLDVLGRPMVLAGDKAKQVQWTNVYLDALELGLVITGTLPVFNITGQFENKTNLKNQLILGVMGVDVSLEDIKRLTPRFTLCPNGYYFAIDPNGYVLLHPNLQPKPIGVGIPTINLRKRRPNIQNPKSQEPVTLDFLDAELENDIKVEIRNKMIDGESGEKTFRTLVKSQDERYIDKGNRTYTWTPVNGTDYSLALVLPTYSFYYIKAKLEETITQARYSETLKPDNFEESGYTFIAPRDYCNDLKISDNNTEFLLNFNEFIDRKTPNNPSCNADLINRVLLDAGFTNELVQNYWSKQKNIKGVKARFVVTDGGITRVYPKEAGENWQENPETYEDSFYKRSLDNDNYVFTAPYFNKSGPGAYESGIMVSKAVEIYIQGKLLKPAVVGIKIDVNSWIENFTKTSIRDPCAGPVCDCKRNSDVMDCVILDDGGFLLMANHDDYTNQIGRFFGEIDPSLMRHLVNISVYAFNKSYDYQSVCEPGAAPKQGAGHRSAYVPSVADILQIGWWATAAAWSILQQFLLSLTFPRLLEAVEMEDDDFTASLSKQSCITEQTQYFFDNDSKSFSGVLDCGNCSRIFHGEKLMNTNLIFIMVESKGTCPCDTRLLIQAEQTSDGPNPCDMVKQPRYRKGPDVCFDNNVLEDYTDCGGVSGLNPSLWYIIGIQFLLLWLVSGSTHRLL
Sequence (P54284 whole entry partner): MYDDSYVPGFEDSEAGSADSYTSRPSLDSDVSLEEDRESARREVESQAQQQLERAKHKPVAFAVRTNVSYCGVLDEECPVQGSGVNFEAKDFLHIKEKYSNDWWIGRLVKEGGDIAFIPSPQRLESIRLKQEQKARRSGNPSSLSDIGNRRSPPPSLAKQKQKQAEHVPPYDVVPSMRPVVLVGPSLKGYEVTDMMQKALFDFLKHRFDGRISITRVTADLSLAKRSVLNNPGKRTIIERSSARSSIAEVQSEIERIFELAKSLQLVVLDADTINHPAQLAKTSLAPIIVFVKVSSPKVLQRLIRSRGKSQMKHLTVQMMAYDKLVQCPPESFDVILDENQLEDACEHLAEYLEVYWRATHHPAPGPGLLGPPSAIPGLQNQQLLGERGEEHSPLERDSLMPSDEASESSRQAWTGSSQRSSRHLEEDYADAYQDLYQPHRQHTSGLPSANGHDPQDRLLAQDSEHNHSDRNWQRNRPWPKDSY

Row | Compound | IC50 [µM]
1 | 2-(3-Fluorophenyl)-N4-morpholin-4-yl-N6-cyclopropyl-quinoline-4,6-diamine [Example 32] | 6.46
2 | Nc1ccc2nc(-c3ccc(Cl)cc3)cc(N)c2c1 [Example 1, 2-(4-Chlorophenyl)-quinoline-4,6-diamine] | 36.3
3 | Nc1ccc2nc(-c3ccccc3)cc(N)c2c1 [Example 3, 2-Phenyl-quinoline-4,6-diamine] | 17.2
4 | Nc1ccc2nc(-c3ccccc3)cc(NCc3ccccc3)c2c1 [Example 4, 2-Phenyl-N4-benzyl-quinoline-4,6-diamine] | 3.54
5 | Nc1ccc2nc(-c3cccc(C(F)(F)F)c3)cc(N)c2c1 [Example 5, 2-(3-Trifluoromethylphenyl)-quinoline-4,6-diamine] | 5.83
6 | CN(C)c1cc(-c2ccccc2)nc2ccc(N)cc12 [Example 6, 2-Phenyl-N4,N4-dimethyl-quinoline-4,6-diamine] | 6.11
7 | CCCNc1cc(-c2ccccc2)nc2ccc(N)cc12 [Example 7, 2-Phenyl-N4-propyl-quinoline-4,6-diamine] | 1.99
8 | COc1cccc(-c2cc(N)c3cc(N)ccc3n2)c1 [Example 9, 2-(3-Methoxyphenyl)-quinoline-4,6-diamine] | 2.71
9 | Nc1ccc2nc(-c3cccc(F)c3)cc(N)c2c1 [Example 10, 2-(3-Fluorophenyl)-quinoline-4,6-diamine] | 3.81
10 | COc1ccc(-c2cc(N)c3cc(N)ccc3n2)cc1 [Example 11, 2-(4-Methoxyphenyl)-quinoline-4,6-diamine] | 6.91
11 | CCCCCc1cc(N)c2cc(N)ccc2n1 [Example 12, 2-Pentyl-quinoline-4,6-diamine] | 1.89
12 | COc1ccccc1-c1cc(N)c2cc(N)ccc2n1 [Example 13, 2-(2-Methoxyphenyl)-quinoline-4,6-diamine] | 10.5
13 | Nc1ccc2nc(COc3ccccc3)cc(N)c2c1 [Example 14, 2-Phenoxymethyl-quinoline-4,6-diamine] | 2.59
14 | Nc1ccc2nc(-c3ccccc3Cl)cc(N)c2c1 [Example 15, 2-(2-Chlorophenyl)-quinoline-4,6-diamine] | 4.13
15 | Nc1ccc2nc(-c3ccccc3F)cc(N)c2c1 [Example 16, 2-(2-Fluorophenyl)-quinoline-4,6-diamine] | 81.6
16 | Nc1ccc2nc(-c3ccc(C4CCCCC4)cc3)cc(N)c2c1 [Example 19, 2-(4-Cyclohexylphenyl)-quinoline-4,6-diamine] | 7.96
17 | Nc1ccc2nc(-c3ccc(Br)cc3)cc(N)c2c1 [Example 20, 2-(4-Bromophenyl)-quinoline-4,6-diamine] | 3.18
18 | Nc1ccc2nc(-c3cccc(Br)c3)cc(N)c2c1 [Example 21, 2-(3-Bromophenyl)-quinoline-4,6-diamine] | 2.54
19 | CNc1ccc2nc(-c3ccccc3F)cc(N)c2c1 [Example 23, 2-(2-Fluorophenyl)-N6-methyl-quinoline-4,6-diamine] | 3.51
20 | CNc1ccc2nc(-c3cccc(F)c3)cc(N)c2c1 [Example 24, 2-(3-Fluorophenyl)-N6-methyl-quinoline-4,6-diamine] | 2.68

Row | Compound | IC50 [µM]
21 | Nc1ccc2nc(-c3cccc(Cl)c3)cc(N)c2c1 [Example 25, 2-(3-Chlorophenyl)-quinoline-4,6-diamine] | 4.83
22 | CN(C)c1ccc2nc(-c3cccc(F)c3)cc(N(C)C)c2c1 [Example 26, 2-(3-Fluorophenyl)-N4,N4,N6,N6-tetramethyl-quinoline-4,6-diamine] | 4.9
23 | CN(C)c1cc(-c2cccc(F)c2)nc2ccc(N)cc12 [Example 27, 2-(3-Fluorophenyl)-N4,N4-dimethyl-quinoline-4,6-diamine] | 5.55
24 | CNc1ccc2nc(-c3cccc(F)c3)cc(N(C)C)c2c1 [Example 28, 2-(3-Fluorophenyl)-N4,N4,N6-trimethyl-quinoline-4,6-diamine] | 3.81
25 | CN(C)c1cc(-c2cccc(F)c2)nc2ccc(NC3CC3)cc12 [Example 29, 2-(3 -Fluorophenyl)-N4,N4-dimethyl-N6-cyclopropyl-quinoline-4,6-diamine] | 5.44
26 | CC(C)Nc1ccc2nc(-c3cccc(F)c3)cc(N(C)C)c2c1 [Example 33, 2-(3-Fluorophenyl)-N4,N4-dimethyl-N6-isopropyl-quinoline-4,6-diamine] | 2.82
27 | CNc1ccc2nc(-c3cccc(F)c3)cc(NC)c2c1 [Example 37, 2-(3-Fluorophenyl)-N4,N6-dimethyl-quinoline-4,6-diamine] | 2.18
28 | CN(C)c1cc(-c2cccc(F)c2)nc2ccc(N3CCCC3)cc12 [Example 38, 2-(3-Fluorophenyl)-N4,N4-dimethyl-6-pyrrolidin-1-yl-quinolin-4-amine] | 9.15
29 | CNc1cc(-c2cccc(F)c2)nc2ccc(N)cc12 [Example 39, 2-(3-Fluorophenyl)-N4-methyl-quinoline-4,6-diamine] | 4.53
30 | CN(C)c1cc(-c2cccc(F)c2)nc2ccc(Nc3cccc(N)n3)cc12 [Example 40, 2-(3-Fluorophenyl)-N4,N4-dimethyl-N6-(6-amino-pyridin-2-yl)-quinoline-4,6-diamine] | 2.98
31 | CNc1cc(-c2cccc(F)c2)nc2ccc(NC3CC3)cc12 [Example 41, 2-(3-Fluorophenyl)-N4-methyl-N6-cyclopropyl-quinoline-4,6-diamine] | 1.8
32 | Cc1c(Nc2ccc3nc(-c4cccc(F)c4)cc(N(C)C)c3c2)c(=O)n(-c2ccccc2)n1C [Example 44, 2-(3-Fluorophenyl)-N4,N4-dimethyl-N6-4-(1,5-dimethyl-2phenyl-1,2-dihydro-pyrazol-3-one)quinoline-4,6-diamine] | 5.39
33 | CN(C)c1cc(-c2cccc(F)c2)nc2ccc(NC3CCC3)cc12 [Example 48, 2-(3-Fluorophenyl)-N4,N4-dimethyl-N6-cyclobutyl-quinoline-4,6-diamine] | 7.74
34 | CN(C)c1cc(-c2cccc(F)c2)nc2ccc(NCC3CC3)cc12 [Example 49, 2-(3-Fluorophenyl)-N4,N4-dimethyl-N6-cyclopropylmethyl-quinoline-4,6-diamine] | 5.88
35 | CN(C)c1cc(-c2cccc(F)c2)nc2ccc(NC3CCCC3)cc12 [Example 50, 2-(3-Fluorophenyl)-N4,N4-dimethyl-N6-cyclopentyl-quinoline-4,6-diamine] | 5.9
36 | C=CCNc1ccc2nc(-c3cccc(F)c3)cc(N(C)C)c2c1 [Example 51, 2-(3-Fluorophenyl)-N4,N4-dimethyl-N6-allyl-quinoline-4,6-diamine] | 3.78
37 | CN(C)c1cc(-c2cccc(Cl)c2)nc2ccc(NC3CC3)cc12 [Example 53, 2-(3-Chlorophenyl)-N4,N4-dimethyl-N6-cyclopropyl-quinoline-4,6-diamine] | 7.19
38 | COCCNc1cc(-c2cccc(F)c2)nc2ccc(NC3CC3)cc12 [Example 54, 2-(3-Fluorophenyl)-N4-(2-methoxy-ethyl)-N6-cyclopropyl-quinoline-4,6-diamine] | 1.75
39 | CN(C)c1cc(-c2cccc(N3CCOCC3)c2)nc2ccc(NC3CC3)cc12 [Example 55, 2-(3-Morpholin-4-ylphenyl)-N4,N4-dimethyl-N6-cyclopropyl-quinoline-4,6-diamine] | 2.31
40 | CN(C)c1cc(-c2cccc(N3CCOCC3)c2)nc2ccc(N)cc12 [Example 56, 2-(3-Morpholin-4-ylphenyl)-N4,N4-dimethyl-quinoline-4,6-diamine] | 6.38

test system: L-type calcium channel; assay: L-channel FLIPR assay (SK-N-SH cells); assay type: cell-based, human; settings: L-channel reference on each plate, near IC50; read-out: reference concentration near IC50
Method: An immortalized cell line, SK-N—SH, derived from human neuroblastoma cells (ATCC product # HTB-11) was used for all experiments. Cells were grown in T75 flasks containing Eagle's minimum essential medium (MEM) w/Earle's salts, with 0.1 mM non-essential amino acids, 1.0 mM Na pyruvate and 10% fetal bovine serum (FBS; Cat. # SLM-034-B, Specialty Media). Cells were grown to 100% confluency (by visual microscopic estimation) before sub-culture. Cells were sub-cultured at a ratio of 1:3 by first rinsing with 3 mL PBS, replacing the PBS with PBS containing 0.25% trypsin until the cells detached from the surface. 1 mL of the resulting suspension was then added to a new flask containing 10 mL fresh media. Cells were then incubated (37° C., 5% CO2), and media was exchanged about 3 days after subculturing.
B. Preparation of Cells for Experiments:
Cells used for experiments were at the 100% confluency growth stage. Each flask provided enough cells for three 96-well plates. […]
Maximum signal (L-channel+non-specific): 12 wells received 20 μL buffer addition only (no nitrendipine) in the first solution addition sequence to define the maximal K^+-evoked Ca^2+ increase mediated by L-channels+non-specific (non-L-channel mediated fluorescence increase). The coefficient of variation amongst these wells for the K^+-evoked peak increase in fluorescence units was typically less than 12%. […]

Row | Compound | IC50 [µM]
41 | CCOC(=O)C1=C(C)NC(C)=C(C(=O)OC)C1c1cccc([N+](=O)[O-])c1 (centres unmarked) [nitrendipine] | ~0.03
